PMC13261308, “Mapping Functionally Relevant Tractable Lysines of Challenging Protein Targets by Covalent Fragment Screening” (Chembiochem, 2026)

How the values were obtained:
[1] = HPLC-MS-based stability (blank, without N-α-acetyl-lysine) in BBS buffer pH 10.2; details: pH 10.2 buffer without N-α-acetyl-lysine
Procedure: (§1) 1.2.1 HPLC-MS-based N-α-acetyl-lysine reactivity assay3
(§2) HPLC-MS measurements were performed using a Shimadzu LCMS-2020 device equipped with a positive–negative double ion source (DUIS±) and a quadrupole MS analyzer in the range of m/z 50–1000. The sample was eluted with gradient elution using eluent A (0.1% HCOOH in H2O) and eluent B (0.1% HCOOH in MeCN). The column temperature was always kept at 30 °C; the injection volume was 10 µL, and the flow rate was set to 1.5 mL/min. A Reprospher C18 (5 μm, 100 mm × 3 mm) column was used along with the following gradient. The in itial condition was 0% B eluent, followed by a linear gradient to 100% B eluent by 2 min; from 2 to […]
(§3) was restored and retained until 5 min.
(§4) For the reactivity and stability assay, in a glass LC-MS vial the internal standard (indoprofen or papaverine or 1,4-dicyanobenzene, 50 µL, 2 mM in acetonitrile) and the 100 mM BBS buffer […]
(§5) of reactivity or stability, respectively). Finally, to this mixture the corresponding electrophile was added (50 µl, 20 mM in acetonitrile) right before the measurement. The vial was mixed, then analyzed by HPLC-MS (10 µL injection volume) at intervals of approximately 60 min (0-4 h, 6 […]
(§6) Final volume was 1 mL. In the case of highly reactive compounds, the measurement was done within 1 h, monitored every 5 minutes. The AUC (area under the […]
(§7) corrected with the internal standard. The fragments’ AUC values were subjected to ordinary least-squares (OLS) linear regression, and to compute the important parameters (kinetic rate constant and half-life time), an Excel sheet was applied. The data are expressed as means of duplicate determination. The kinetic rate constant for the degradation and corrected N-α-acetyl-lysine reactivity were calculated as follows. The reaction half-life for pseudo-first-order reactions (t1/2) is ln 2/k, where k is the reaction rate. In the case of competing reactions (reaction with N-α-acetyl-lysine and degradation), the apparent reaction rate is kLys = kBlank + kBinding.
(§8) When half-lives are measured experimentally, t1/2(Lys) = ln 2/(kLys) = ln 2/(kBlank + kBinding). In our case, the corrected kBlank and kLys (regarding blank and N-α-acetyl lysine-containing samples, respectively) can be calculated by linear regression of the measured kinetic data points. […]

[2] = HPLC-MS-based N-α-acetyl-lysine reactivity assay; details: pH 10.2, monitored for 24 h
Procedure: as §1, §2, §3, §4, §5, §6, §7, §8

Structure (SMILES)	Stability t1/2, pH 10.2 [1]	Lys-reactivity t1/2, pH 10.2 [2]
COc1c(Nc2cc(C(F)(F)F)cc(C(F)(F)F)c2)c(=O)c1=O [compound 18]	12.17 h	
O=S(=O)(F)Oc1cc(C(F)(F)F)cc(C(F)(F)F)c1 [compound 4]	4.94 h	
O=Cc1c(O)cc(C(F)(F)F)cc1C(F)(F)F [compound 26]	246.76 h	40.93 h
FC(F)=Cc1cc(C(F)(F)F)cc(C(F)(F)F)c1 [compound 17]	3.32 h	
C#Cc1ccc(C(F)(F)F)cc1C=O [compound 32]	15.36 h	0.23 h
FC(F)(F)c1cc(Nc2nc(Cl)nc(Cl)n2)cc(C(F)(F)F)c1 [compound 19]	0.97 h	
O=Cc1cc2ccccc2cc1C=O [compound 31, 2,3‐naphthalene‐dicarboxaldehyde]	11.69 h	
CC(=O)N(C(=O)c1cc(C(F)(F)F)cc(C(F)(F)F)c1)c1ccccc1 [compound 13]		0.27 h
Cc1ccc(S(=O)(=O)N(CC#N)C(=O)Cc2cc(C(F)(F)F)cc(C(F)(F)F)c2)cc1 [compound 8]	0.17 h	0.26 h
O=S(=O)(On1nnc2ccccc21)c1cc(C(F)(F)F)cc(C(F)(F)F)c1 [compound 6]	0.35 h	
